From patent US20250230147A1, “LACTAMS AS CBL-B INHIBITORS” (Genentech, Inc., priority 2021, published 2025)
Counter-ions that a name gives are not always drawn.

Tests used:
Cbl-b = Cbl-b (Homo sapiens (Human), UniProt Q13191); test: Cbl-b LCK Ub TR-FRET assay (Cbl-b Lck HTRF); assay type: biochemical
Protocol: Compounds were 3-fold serially diluted in DMSO in a 384-well polypropylene plate (#P-05525-BC; Labcyte) to generate a source plate with 10 concentrations of each compound, top concentration=2 mM. 80 nL of DMSO or compounds were transferred to each well of a black 384-well ProxiPlate (#6008260; PerkinElmer) using a Labcyte Echo. 1×assay buffer (50 mM HEPES pH7.0, 100 mM NaCl, 0.01% BSA, 0.01% Triton-X100, 1 mM DTT), 2×enzyme solution (16 nM Biotin-Cbl-b or 12 nM Biotin-c-Cbl in 1× assay buffer), 2×kinase mixture (120 nM His-LCK, 1 mM ATP, 10 mM MgCl2 in assay buffer) and 2.33×detection mixture (4.66×solution 1: 163 nM Anti-HA-D2 antibody (#610HADAB; PerkinElmer), 27.96 nM Streptavidin-EU (#AD0062; PerkinElmer), 1.398 mM EDTA in 1×assay buffer+4.66×solution 2: 2.796 μM UBE2D2/Methylated-HA-Ubiquitin thioester adduct (BostonBiochem) in 1×assay buffer) were prepared. 4 μL of 2× enzyme solution was added to each well containing compound, briefly centrifuged to mix, and incubated for 60 min at room temperature. 4 μL of 2× kinase mixture was added, briefly centrifuged to mix, and incubated for 90 min. at room temperature. 6 μL of detection mixture was added to all wells and briefly centrifuged before incubating for 20 min at room temperature. Plates were read for TR-FRET using an Envision at excitation 340 nm, emission at 615 and 665 nm, 4 flashes per well. IC50 was generated using no LCK as the low control and DMSO as the high control.
Cbl-b Lck HTRF data in Table 7 is measured according to Example 76 herein; C-cbl Lck HTRF data is measured according to Example 76 herein.

c-Cbl = c-Cbl (Homo sapiens (Human), UniProt P22681); test: C-Cbl LCK Ub TR-FRET assay (c-cbl Lck HTRF); assay type: biochemical; details: for (fold-selectivity): C-cbl Lck HTRF IC50 relative to Cbl-b Lck HTRF IC50
Protocol: 6 μL of detection mixture was added to all wells and briefly centrifuged before incubating for 20 min at room temperature. […] IC50 was generated using no LCK as the low control and DMSO as the high control.

c-Cbl, sequence (P22681 47-435): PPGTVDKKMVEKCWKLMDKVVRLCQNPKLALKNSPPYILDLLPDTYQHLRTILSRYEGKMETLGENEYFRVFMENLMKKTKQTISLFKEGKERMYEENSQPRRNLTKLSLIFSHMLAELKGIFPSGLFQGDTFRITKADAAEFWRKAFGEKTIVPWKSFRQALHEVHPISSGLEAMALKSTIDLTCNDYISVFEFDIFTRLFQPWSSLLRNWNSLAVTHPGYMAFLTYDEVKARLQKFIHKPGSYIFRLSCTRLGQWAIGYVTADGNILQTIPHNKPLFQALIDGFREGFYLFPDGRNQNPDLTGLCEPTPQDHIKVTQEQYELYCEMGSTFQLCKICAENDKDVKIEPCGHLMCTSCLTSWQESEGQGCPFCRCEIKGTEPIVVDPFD
Cbl-b, sequence (Q13191 40-426): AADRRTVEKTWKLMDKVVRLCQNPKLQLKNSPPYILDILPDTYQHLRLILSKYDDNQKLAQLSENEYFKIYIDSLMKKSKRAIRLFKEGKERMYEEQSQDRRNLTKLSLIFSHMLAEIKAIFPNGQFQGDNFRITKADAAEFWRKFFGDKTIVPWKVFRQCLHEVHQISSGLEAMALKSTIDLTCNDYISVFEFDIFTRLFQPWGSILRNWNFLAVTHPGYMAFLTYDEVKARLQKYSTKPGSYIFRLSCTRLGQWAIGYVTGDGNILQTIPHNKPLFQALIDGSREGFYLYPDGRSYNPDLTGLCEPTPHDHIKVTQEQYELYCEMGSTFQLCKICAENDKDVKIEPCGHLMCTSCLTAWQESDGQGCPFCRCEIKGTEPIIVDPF

IC50 (Cbl-b)	IC50 (c-Cbl)	(fold-selectivity) (c-Cbl)	Compound
420 nM	620 nM	1.5x	Cn1cnnc1CC1(c2cccc(N3Cc4c(cc(C5CCCN5)cc4C(F)(F)F)C3=O)c2)COC1.O=CO (racemic) [Compound 11, 2-(3-(3-((4-methyl-4H-1,2,4-triazol-3-yl)methyl)oxetan-3-yl)phenyl)-6-(pyrrolidin-2-yl)-4-(trifluoromethyl)isoindolin-1-one formate]
10000 nM	20000 nM	2.0x	Cn1cnnc1CC(F)c1cccc(N2Cc3c(cccc3C(F)(F)F)C2=O)c1 (racemic) [Compound 14, 2-[3-[1-fluoro-2-(4-methyl-4H-1,2,4-triazol-3-yl)ethyl]phenyl]-4-(trifluoromethyl)isoindolin-1-one]
54 nM	90 nM	1.7x	Cn1cnnc1CC1(c2cccc(N3Cc4c(cc(C5CCNC5)cc4C(F)(F)F)C3=O)c2)COC1.O=CO (racemic) [Compound 50, (±)-2-(3-(3-((4-methyl-4H-1,2,4-triazol-3-yl)methyl)oxetan-3-yl)phenyl)-6-(pyrrolidin-3-yl)-4-(trifluoromethyl)isoindolin-1-one formate]
120 nM	230 nM	1.8x	Cn1cnnc1[C@@H](F)C1(c2cccc(N3Cc4c(cc(CN5CC(C)(O)C5)cc4C(F)(F)F)C3=O)c2)CC1 (single isomer, unassigned) [Compound 29]
65 nM	91 nM	1.4x	Cn1cnnc1[C@H](F)C1(c2cccc(N3Cc4c(cc(CN5CC(C)(O)C5)cc4C(F)(F)F)C3=O)c2)CC1 (single isomer, unassigned) [Compound 30]
140 nM	150 nM	(1.1x)	CC(C)[C@H]1CN(C)CCN1Cc1cc2c(c(C(F)(F)F)c1)CN(c1cccc([C@]3([C@@H](F)c4nncn4C)CCO3)c1)C2=O (single isomer, unassigned) [Compound 261]
580 nM	840 nM	(1.4x)	CC(C)[C@H]1CN(C)CCN1Cc1cc2c(c(C(F)(F)F)c1)CN(c1cccc([C@]3([C@H](F)c4nncn4C)CCO3)c1)C2=O (single isomer, unassigned) [Compound 262]
51 nM	77 nM	(1.5x)	CC[C@H]1CCC[C@@H](c2cc3c(c(C(F)(F)F)c2)CN(c2cccc(C4(Cc5nncn5C)CC(F)(F)C4)c2)C3=O)N1 (single isomer, unassigned) [Compound 273]
160 nM	350 nM	2.1x	Cn1cnnc1[C@H](F)C1(c2cccc(N3Cc4c(cc(CN5CC6(COC6)C5)cc4C(F)(F)F)C3=O)c2)COC1 [Compound 9, (R)-6-(2-oxa-6-azaspiro[3.3]heptan-6-ylmethyl)-2-(3-(3-(fluoro(4-methyl-4H-1,2,4-triazol-3-yl)methyl)oxetan-3-yl)phenyl)-4-(trifluoromethyl)isoindolin-1-one]
500 nM	1100 nM	2.3x	Cn1cnnc1[C@@H](F)C1(c2cccc(N3Cc4c(cc(CN5CC6(COC6)C5)cc4C(F)(F)F)C3=O)c2)COC1 [Compound 10, (S)-6-(2-oxa-6-azaspiro[3.3]heptan-6-ylmethyl)-2-(3-(3-(fluoro(4-methyl-4H-1,2,4-triazol-3-yl)methyl)oxetan-3-yl)phenyl)-4-(trifluoromethyl)isoindolin-1-one]
220 nM	210 nM	0.94x	Cn1cnnc1CC1(c2cccc(N3Cc4c(cc(C5CNC5)cc4C(F)(F)F)C3=O)c2)COC1 [Compound 12, 6-(azetidin-3-yl)-2-(3-(3-((4-methyl-4H-1,2,4-triazol-3-yl)methyl)oxetan-3-yl)phenyl)-4-(trifluoromethyl)isoindolin-1-one]
3500 nM	6400 nM	1.8x	Cn1cnnc1CC(F)(F)c1cccc(N2Cc3c(cccc3C(F)(F)F)C2=O)c1 [Compound 15, 2-(3-(1,1-difluoro-2-(4-methyl-4H-1,2,4-triazol-3-yl)ethyl)phenyl)-4-(trifluoromethyl)isoindolin-1-one]
17 nM	14 nM	0.85x	Cn1cnnc1CC1(c2cccc(N3Cc4c(cc(CN5CC(C)(O)C5)cc4C(F)(F)F)C3=O)c2)CC(F)(F)C1 [Compound 17, 2-(3-(3,3-difluoro-1-((4-methyl-4H-1,2,4-triazol-3-yl)methyl)cyclo-butyl)phenyl)-6-((3-hydroxy-3-methylazetidin-1-yl)methyl)-4-(trifluoromethyl)isoindolin-1-one]
39 nM	61 nM	–	Cn1cnnc1[C@H](F)C1(c2cccc(N3Cc4c(cc(CN5CCC6(CC6)C5)cc4C(F)(F)F)C3=O)c2)CC1 [Compound 27, (R)-6-(5-azaspiro[2.4]heptan-5-ylmethyl)-2-(3-(1-(fluoro(4-methyl-4H-1,2,4-triazol-3-yl)methyl)cyclopropyl)phenyl)-4-(trifluoromethyl)isoindolin-1-one]
80 nM	180 nM	2.2x	Cn1cnnc1[C@@H](F)C1(c2cccc(N3Cc4c(cc(CN5CCC6(CC6)C5)cc4C(F)(F)F)C3=O)c2)CC1 [Compound 28, (S)-6-(5-azaspiro[2.4]heptan-5-ylmethyl)-2-(3-(1-(fluoro(4-methyl-4H-1,2,4-triazol-3-yl)methyl)cyclopropyl)phenyl)-4-(trifluoromethyl)isoindolin-1-one]
88 nM	130 nM	1.4x	Cn1cnnc1[C@H](F)[C@](C)(F)c1cccc(N2Cc3c(cc(CN4CC(C)(F)C4)cc3C(F)(F)F)C2=O)c1 [Compound 31, 2-(3-((1 S,2R)-1,2-difluoro-1-(4-methyl-4H-1,2,4-triazol-3-yl)propan-2-yl)phenyl)-6-((3-fluoro-3-methylazetidin-1-yl)methyl)-4-(trifluoromethyl)isoindolin-1-one]
4500 nM	11000 nM	2.5x	Cn1cnnc1[C@@H](F)[C@@](C)(F)c1cccc(N2Cc3c(cc(CN4CC(C)(F)C4)cc3C(F)(F)F)C2=O)c1 [Compound 32, 2-(3-((1 R,2S)-1,2-difluoro-1-(4-methyl-4H-1,2,4-triazol-3-yl)propan-2-yl)phenyl)-6-((3-fluoro-3-methylazetidin-1-yl)methyl)-4-(trifluoromethyl)isoindolin-1-one]
–	–	3.4x	Cn1cnnc1[C@H](F)[C@@](C)(F)c1cccc(N2Cc3c(cc(CN4CCC5(CC5)C4)cc3C(F)(F)F)C2=O)c1 [Compound 128, 6-(5-azaspiro[2.4]heptan-5-ylmethyl)-2-(3-((1S,2S)-1,2-difluoro-1-(4-methyl-4H-1,2,4-triazol-3-yl)propan-2-yl)phenyl)-4-(trifluoromethyl)isoindolin-1-one]
–	–	3.6x	Cn1cnnc1[C@@H](F)[C@](C)(F)c1cccc(N2Cc3c(cc(CN4CCC5(CC5)C4)cc3C(F)(F)F)C2=O)c1 [Compound 129, 6-(5-azaspiro[2.4]heptan-5-ylmethyl)-2-(3-((1R,2R)-1,2-difluoro-1-(4-methyl-4H-1,2,4-triazol-3-yl)propan-2-yl)phenyl)-4-(trifluoromethyl)isoindolin-1-one]
–	–	3.3x	Cn1cnnc1[C@@H](F)[C@@](C)(F)c1cccc(N2Cc3c(cc(CN4CCC5(CC5)C4)cc3C(F)(F)F)C2=O)c1 [Compound 130, 6-(5-azaspiro[2.4]heptan-5-ylmethyl)-2-(3-((1R,2S)-1,2-difluoro-1-(4-methyl-4H-1,2,4-triazol-3-yl)propan-2-yl)phenyl)-4-(trifluoromethyl)isoindolin-1-one]
–	–	(0.70x)	Cn1cnnc1[C@H](F)C1(c2cccc(N3Cc4c(Cl)cc(CNC5(C)CCC5)cc4C3=O)c2)COC1 [Compound 470, (R)-4-chloro-2-(3-(3-(fluoro(4-methyl-4H-1,2,4-triazol-3-yl)methyl)oxetan-3-yl)phenyl)-6-(((1-methylcyclobutyl)amino)methyl) isoindolin-1-one]

Compound	IC50 (Cbl-b)	IC50 (c-Cbl)	(fold-selectivity) (c-Cbl)
Cn1cnnc1CC1(c2cccc(N3Cc4c(cc(C5CCN5)cc4C(F)(F)F)C3=O)c2)COC1 (centres unmarked) [Compound 13, 6-(azetidin-2-yl)-2-(3-(3-((4-methyl-4H-1,2,4-triazol-3-yl)methyl)oxetan-3-yl)phenyl)-4-(trifluoromethyl)isoindolin-1-one formate]	320 nM	540 nM	–
